Each compound was assayed against T1, CDK1/Cyclin B (Homo sapiens, UniProt P06493) (assay: Enzymatic assay for CDK1 (FRET based LANCE Ultra kinase assay)). Conditions: read-out: CDK1 enzymatic activity (IC50 range).
T1 construct: purchased Invitrogen PR4768C
Format: biochemical
Method in brief: (§1)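 LANCE Ultra TR-FRET: ULight-MBP peptide (68 nM) with ATP at Km, […], 60 min at 23° C. EDTA plus Eu-anti-phospho-MBP added, another 60 min, then 665/615 nm emission read. Compounds tested as 8-dose 4-fold DMSO dilutions.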

T1 sequence (P06493 whole entry): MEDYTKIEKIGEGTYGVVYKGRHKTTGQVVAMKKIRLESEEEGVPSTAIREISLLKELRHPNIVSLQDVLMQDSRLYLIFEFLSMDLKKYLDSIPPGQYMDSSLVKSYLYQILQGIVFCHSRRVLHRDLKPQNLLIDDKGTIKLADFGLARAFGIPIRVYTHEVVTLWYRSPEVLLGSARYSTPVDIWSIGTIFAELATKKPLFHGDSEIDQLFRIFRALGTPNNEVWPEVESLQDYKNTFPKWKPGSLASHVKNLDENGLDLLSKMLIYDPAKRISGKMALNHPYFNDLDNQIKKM
T1 sequence (P14635 whole entry partner): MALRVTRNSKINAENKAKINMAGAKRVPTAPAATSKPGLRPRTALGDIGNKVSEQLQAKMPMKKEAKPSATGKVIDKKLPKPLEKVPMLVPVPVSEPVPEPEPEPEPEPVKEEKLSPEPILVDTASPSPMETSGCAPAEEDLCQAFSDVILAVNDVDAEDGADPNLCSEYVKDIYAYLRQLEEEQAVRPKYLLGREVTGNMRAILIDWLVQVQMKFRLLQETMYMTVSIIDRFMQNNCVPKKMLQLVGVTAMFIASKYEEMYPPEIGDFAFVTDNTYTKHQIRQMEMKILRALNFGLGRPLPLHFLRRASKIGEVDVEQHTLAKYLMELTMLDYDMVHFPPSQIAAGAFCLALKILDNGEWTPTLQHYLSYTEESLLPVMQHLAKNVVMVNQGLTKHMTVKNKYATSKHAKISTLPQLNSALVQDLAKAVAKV

| IC50 | Compound |
| --- | --- |
| > 1 µM | CC(C)c1cnn2c(NCc3ccccc3-n3ccc(C(C)(C)O)n3)nc(OCC3CCNCC3)nc12 [Compound 227] |
| > 1 µM | CC(C)c1cnn2c(NCc3ccccc3-n3ccc(C(C)(C)O)n3)nc(N3CCC(O)(CN)CC3)nc12 [Compound 228] |
| > 1 µM | CC(C)c1cnn2c(NCc3ccccc3-n3ccc(C(C)(C)O)n3)nc(NCC3(O)CCNCC3)nc12 [Compound 229] |
| > 1 µM | Cc1cccc(-n2ccc(C(C)(C)O)n2)c1CNc1nc(NCC2CCNCC2)nc2c(C(C)C)cnn12 [Compound 232] |
| > 1 µM | Cc1cccc(C)c1CNc1nc(N2CCC(N)CC2)nc2c(C(C)C)cnn12 [Compound 235] |

The compounds below were run against T2, CDK2/Cyclin A (Homo sapiens, UniProt P24941) (assay: Enzymatic assay for CDK2 (FRET based LANCE Ultra kinase assay)). Conditions: read-out: CDK2 enzymatic activity (IC50 range).
T2 construct: purchased Invitrogen PV6290
Format: biochemical
Method in brief: as §1

| IC50 | Compound |
| --- | --- |
| > 1 µM | CC(C)c1cnn2c(NCc3ccccc3-n3ccc(C(C)(C)O)n3)nc(OCC3CCNCC3)nc12 [Compound 227] |
| > 1 µM | CC(C)c1cnn2c(NCc3ccccc3-n3ccc(C(C)(C)O)n3)nc(N3CCC(O)(CN)CC3)nc12 [Compound 228] |
| 0.1 to 1 µM | CC(C)c1cnn2c(NCc3ccccc3-n3ccc(C(C)(C)O)n3)nc(NCC3(O)CCNCC3)nc12 [Compound 229] |
| > 1 µM | Cc1cccc(-n2ccc(C(C)(C)O)n2)c1CNc1nc(NCC2CCNCC2)nc2c(C(C)C)cnn12 [Compound 232] |
| > 1 µM | Cc1cccc(C)c1CNc1nc(N2CCC(N)CC2)nc2c(C(C)C)cnn12 [Compound 235] |

Each compound was assayed against T3, CDK5/p25 (Homo sapiens, UniProt Q00535) (assay: Enzymatic assay for CDK5 (FRET based LANCE Ultra kinase assay)). Conditions: read-out: CDK5 enzymatic activity (IC50 range).
T3 construct: purchased Invitrogen PR8543B
T3 sequence (Q00535 whole entry): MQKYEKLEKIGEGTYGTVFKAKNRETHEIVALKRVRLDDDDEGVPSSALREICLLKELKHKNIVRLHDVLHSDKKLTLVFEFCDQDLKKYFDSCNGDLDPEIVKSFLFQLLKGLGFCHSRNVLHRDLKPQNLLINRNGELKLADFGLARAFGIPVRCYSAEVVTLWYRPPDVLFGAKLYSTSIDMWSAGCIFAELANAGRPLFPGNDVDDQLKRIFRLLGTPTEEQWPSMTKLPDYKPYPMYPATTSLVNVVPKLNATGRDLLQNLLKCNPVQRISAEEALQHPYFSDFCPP
T3 sequence (Q15078 99-307 partner limits assumed): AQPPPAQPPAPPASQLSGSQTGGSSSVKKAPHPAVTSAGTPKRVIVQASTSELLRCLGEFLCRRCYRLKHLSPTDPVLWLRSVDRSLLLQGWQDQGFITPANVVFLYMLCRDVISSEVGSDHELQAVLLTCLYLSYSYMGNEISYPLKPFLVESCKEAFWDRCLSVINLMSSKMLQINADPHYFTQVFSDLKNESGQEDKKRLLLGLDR
Format: biochemical
Method in brief: as §1

| IC50 | Compound |
| --- | --- |
| > 1 µM | CC(C)c1cnn2c(NCc3ccccc3-n3ccc(C(C)(C)O)n3)nc(OCC3CCNCC3)nc12 [Compound 227] |
| 0.1 to 1 µM | CC(C)c1cnn2c(NCc3ccccc3-n3ccc(C(C)(C)O)n3)nc(N3CCC(O)(CN)CC3)nc12 [Compound 228] |
| 0.1 to 1 µM | CC(C)c1cnn2c(NCc3ccccc3-n3ccc(C(C)(C)O)n3)nc(NCC3(O)CCNCC3)nc12 [Compound 229] |
| > 1 µM | Cc1cccc(-n2ccc(C(C)(C)O)n2)c1CNc1nc(NCC2CCNCC2)nc2c(C(C)C)cnn12 [Compound 232] |
| 0.1 to 1 µM | Cc1cccc(C)c1CNc1nc(N2CCC(N)CC2)nc2c(C(C)C)cnn12 [Compound 235] |

These compounds were tested against T4, CDK7/Cyclin H/MNAT1 (Homo sapiens, UniProt P50613) (assay: Enzymatic assay for CDK7 (FRET based LANCE Ultra kinase assay)). Conditions: CDK7 over CDK1.
T4 construct: purchased Invitrogen PR6749B
T4 sequence (P50613 whole entry): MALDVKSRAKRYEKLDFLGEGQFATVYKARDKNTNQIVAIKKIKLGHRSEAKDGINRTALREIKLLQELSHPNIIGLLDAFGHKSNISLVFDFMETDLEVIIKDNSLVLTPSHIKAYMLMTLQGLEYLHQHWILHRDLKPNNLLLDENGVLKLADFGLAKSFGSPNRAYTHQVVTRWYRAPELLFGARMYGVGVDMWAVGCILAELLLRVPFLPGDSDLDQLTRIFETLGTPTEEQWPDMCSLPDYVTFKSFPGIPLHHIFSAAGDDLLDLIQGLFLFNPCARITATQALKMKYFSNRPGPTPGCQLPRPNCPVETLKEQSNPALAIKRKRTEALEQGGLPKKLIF
T4 sequence (P51946 whole entry partner): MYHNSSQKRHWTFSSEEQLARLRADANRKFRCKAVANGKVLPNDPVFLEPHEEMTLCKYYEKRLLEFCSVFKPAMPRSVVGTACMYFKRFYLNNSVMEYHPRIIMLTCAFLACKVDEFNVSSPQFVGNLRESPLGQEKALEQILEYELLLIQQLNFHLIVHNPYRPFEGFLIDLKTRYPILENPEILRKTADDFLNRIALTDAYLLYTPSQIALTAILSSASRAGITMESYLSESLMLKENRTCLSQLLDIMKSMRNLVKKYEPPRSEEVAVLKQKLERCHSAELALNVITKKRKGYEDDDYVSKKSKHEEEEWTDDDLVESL
T4 sequence (P51948 whole entry partner): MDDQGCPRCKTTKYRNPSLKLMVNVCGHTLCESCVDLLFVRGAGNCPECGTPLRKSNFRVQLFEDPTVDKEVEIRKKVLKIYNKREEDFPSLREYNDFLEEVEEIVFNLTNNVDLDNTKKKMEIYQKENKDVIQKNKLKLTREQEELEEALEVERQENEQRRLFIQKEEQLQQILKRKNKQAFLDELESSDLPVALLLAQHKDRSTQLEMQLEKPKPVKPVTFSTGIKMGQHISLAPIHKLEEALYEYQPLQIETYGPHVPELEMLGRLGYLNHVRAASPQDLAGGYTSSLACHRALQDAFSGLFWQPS
Format: biochemical
Method in brief: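 LANCE Ultra TR-FRET kinase assay using a ULight-labeled peptide substrate and a Eu-labeled anti-phospho antibody, with ATP at its Km. Purified CDK/cyclin complex was added to compound after brief centrifugation.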

| CDK1/CDK7: Selectivity of CDK7 inhibition over CDK1 inhibition | Compound |
| --- | --- |
| A (A=greater than 200 fold) | CC(C)c1cnn2c(NCc3ccccc3-n3ccc(C(C)(C)O)n3)nc(OCC3CCNCC3)nc12 [Compound 227] |
| A (A=greater than 200 fold) | CC(C)c1cnn2c(NCc3ccccc3-n3ccc(C(C)(C)O)n3)nc(N3CCC(O)(CN)CC3)nc12 [Compound 228] |
| A (A=greater than 200 fold) | Cc1cccc(-n2ccc(C(C)(C)O)n2)c1CNc1nc(NCC2CCNCC2)nc2c(C(C)C)cnn12 [Compound 232] |
| A (A=greater than 200 fold) | Cc1cccc(C)c1CNc1nc(N2CCC(N)CC2)nc2c(C(C)C)cnn12 [Compound 235] |

| Compound | CDK1/CDK7: Selectivity of CDK7 inhibition over CDK1 inhibition |
| --- | --- |
| CC(C)c1cnn2c(NCc3ccccc3-n3ccc(C(C)(C)O)n3)nc(NCC3(O)CCNCC3)nc12 [Compound 229] | B (B=less than 200 fold, but greater than 20 fold) |

Same assay, conditions: CDK7 over CDK2

| CDK2/CDK7: Selectivity of CDK7 inhibition over CDK2 inhibition | Compound |
| --- | --- |
| A (A=greater than 200 fold) | CC(C)c1cnn2c(NCc3ccccc3-n3ccc(C(C)(C)O)n3)nc(OCC3CCNCC3)nc12 [Compound 227] |
| A (A=greater than 200 fold) | CC(C)c1cnn2c(NCc3ccccc3-n3ccc(C(C)(C)O)n3)nc(N3CCC(O)(CN)CC3)nc12 [Compound 228] |
| C (C=less than 20 fold) | CC(C)c1cnn2c(NCc3ccccc3-n3ccc(C(C)(C)O)n3)nc(NCC3(O)CCNCC3)nc12 [Compound 229] |
| A (A=greater than 200 fold) | Cc1cccc(-n2ccc(C(C)(C)O)n2)c1CNc1nc(NCC2CCNCC2)nc2c(C(C)C)cnn12 [Compound 232] |

| Compound | CDK2/CDK7: Selectivity of CDK7 inhibition over CDK2 inhibition |
| --- | --- |
| Cc1cccc(C)c1CNc1nc(N2CCC(N)CC2)nc2c(C(C)C)cnn12 [Compound 235] | B (B=less than 200 fold, but greater than 20 fold) |

Same assay, conditions: CDK7 over CDK5

| CDK5/CDK7: Selectivity of CDK7 inhibition over CDK5 inhibition | Compound |
| --- | --- |
| A (A=greater than 200 fold) | CC(C)c1cnn2c(NCc3ccccc3-n3ccc(C(C)(C)O)n3)nc(OCC3CCNCC3)nc12 [Compound 227] |
| A (A=greater than 200 fold) | CC(C)c1cnn2c(NCc3ccccc3-n3ccc(C(C)(C)O)n3)nc(N3CCC(O)(CN)CC3)nc12 [Compound 228] |
| C (C=less than 20 fold) | CC(C)c1cnn2c(NCc3ccccc3-n3ccc(C(C)(C)O)n3)nc(NCC3(O)CCNCC3)nc12 [Compound 229] |
| A (A=greater than 200 fold) | Cc1cccc(-n2ccc(C(C)(C)O)n2)c1CNc1nc(NCC2CCNCC2)nc2c(C(C)C)cnn12 [Compound 232] |

| Compound | CDK5/CDK7: Selectivity of CDK7 inhibition over CDK5 inhibition |
| --- | --- |
| Cc1cccc(C)c1CNc1nc(N2CCC(N)CC2)nc2c(C(C)C)cnn12 [Compound 235] | B (B=less than 200 fold, but greater than 20 fold) |

Same assay, conditions: read-out: CDK7 enzymatic activity (IC50 range)

| IC50 | Compound |
| --- | --- |
| < 0.1 µM | CC(C)c1cnn2c(NCc3ccccc3-n3ccc(C(C)(C)O)n3)nc(OCC3CCNCC3)nc12 [Compound 227] |
| < 0.1 µM | CC(C)c1cnn2c(NCc3ccccc3-n3ccc(C(C)(C)O)n3)nc(N3CCC(O)(CN)CC3)nc12 [Compound 228] |
| < 0.1 µM | CC(C)c1cnn2c(NCc3ccccc3-n3ccc(C(C)(C)O)n3)nc(NCC3(O)CCNCC3)nc12 [Compound 229] |
| < 0.1 µM | Cc1cccc(-n2ccc(C(C)(C)O)n2)c1CNc1nc(NCC2CCNCC2)nc2c(C(C)C)cnn12 [Compound 232] |
| < 0.1 µM | Cc1cccc(C)c1CNc1nc(N2CCC(N)CC2)nc2c(C(C)C)cnn12 [Compound 235] |

These compounds were tested on HCT116 (assay: Cellular HCT116 viability assay (CellTiter-Glo, 72 hours)). Conditions: Homo sapiens, HCT-116.
Format: cell-based
Method in brief: (§2)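 Cells were plated at line-specific densities and exposed to compound for 72 hours at 37 °C, 5% CO2, with DMSO-only wells as control (final DMSO below 0.1%). Viability was measured by CellTiter-Glo luminescence in duplicate.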

| IC50 | Compound |
| --- | --- |
| < 1 µM | CC(C)c1cnn2c(NCc3ccccc3-n3ccc(C(C)(C)O)n3)nc(OCC3CCNCC3)nc12 [Compound 227] |
| < 1 µM | CC(C)c1cnn2c(NCc3ccccc3-n3ccc(C(C)(C)O)n3)nc(N3CCC(O)(CN)CC3)nc12 [Compound 228] |
| 1 to 10 µM | CC(C)c1cnn2c(NCc3ccccc3-n3ccc(C(C)(C)O)n3)nc(NCC3(O)CCNCC3)nc12 [Compound 229] |
| 1 to 10 µM | Cc1cccc(-n2ccc(C(C)(C)O)n2)c1CNc1nc(NCC2CCNCC2)nc2c(C(C)C)cnn12 [Compound 232] |
| 1 to 10 µM | Cc1cccc(C)c1CNc1nc(N2CCC(N)CC2)nc2c(C(C)C)cnn12 [Compound 235] |

What follows are compounds tested on H460 (assay: Cellular H460 viability assay (CellTiter-Glo, 72 hours)). Conditions: Homo sapiens, NCI-H460.
Format: cell-based
Method in brief: as §2

| IC50 | Compound |
| --- | --- |
| < 1 µM | CC(C)c1cnn2c(NCc3ccccc3-n3ccc(C(C)(C)O)n3)nc(OCC3CCNCC3)nc12 [Compound 227] |
| < 1 µM | CC(C)c1cnn2c(NCc3ccccc3-n3ccc(C(C)(C)O)n3)nc(N3CCC(O)(CN)CC3)nc12 [Compound 228] |
| 1 to 10 µM | CC(C)c1cnn2c(NCc3ccccc3-n3ccc(C(C)(C)O)n3)nc(NCC3(O)CCNCC3)nc12 [Compound 229] |
| 1 to 10 µM | Cc1cccc(-n2ccc(C(C)(C)O)n2)c1CNc1nc(NCC2CCNCC2)nc2c(C(C)C)cnn12 [Compound 232] |
| 1 to 10 µM | Cc1cccc(C)c1CNc1nc(N2CCC(N)CC2)nc2c(C(C)C)cnn12 [Compound 235] |

These compounds were tested on MV4-11 (assay: Cellular MV4-11 viability assay (CellTiter-Glo, 72 hours)). Conditions: Homo sapiens.
Format: cell-based
Method in brief: as §2

| IC50 | Compound |
| --- | --- |
| 1 to 10 µM | CC(C)c1cnn2c(NCc3ccccc3-n3ccc(C(C)(C)O)n3)nc(OCC3CCNCC3)nc12 [Compound 227] |
| < 1 µM | CC(C)c1cnn2c(NCc3ccccc3-n3ccc(C(C)(C)O)n3)nc(N3CCC(O)(CN)CC3)nc12 [Compound 228] |
| 1 to 10 µM | CC(C)c1cnn2c(NCc3ccccc3-n3ccc(C(C)(C)O)n3)nc(NCC3(O)CCNCC3)nc12 [Compound 229] |
| 1 to 10 µM | Cc1cccc(-n2ccc(C(C)(C)O)n2)c1CNc1nc(NCC2CCNCC2)nc2c(C(C)C)cnn12 [Compound 232] |
| 1 to 10 µM | Cc1cccc(C)c1CNc1nc(N2CCC(N)CC2)nc2c(C(C)C)cnn12 [Compound 235] |
